Data on 13 compounds can be found in PubChem BioAssay AID651581 (Sanford-Burnham Center for Chemical Genomics, 2012).

pIC50: −log10 of the molar value. The source made the active and inactive calls. The rule behind the calls is not given here. Where only a bound is given, the exact number is not on record here.

For experiment [1], the target named is Hypoxia-inducible factor 1-alpha (Homo sapiens) (UniProt Q16665). As to the kind of experiment: HIF-2a and HIF-1a reporter inhibition panel, dose response, selectivity assay for HIF-2a inhibitor project, cell-based, luminescence (AID 651581). As to conditions: HIF-1a.
The target of experiment [2] is Endothelial PAS domain-containing protein 1 (Homo sapiens) (UniProt Q99814). The experiment is described as above.

Sequence of Hypoxia-inducible factor 1-alpha (Homo sapiens) (Q16665 whole entry, looked up, the tested form may be a part): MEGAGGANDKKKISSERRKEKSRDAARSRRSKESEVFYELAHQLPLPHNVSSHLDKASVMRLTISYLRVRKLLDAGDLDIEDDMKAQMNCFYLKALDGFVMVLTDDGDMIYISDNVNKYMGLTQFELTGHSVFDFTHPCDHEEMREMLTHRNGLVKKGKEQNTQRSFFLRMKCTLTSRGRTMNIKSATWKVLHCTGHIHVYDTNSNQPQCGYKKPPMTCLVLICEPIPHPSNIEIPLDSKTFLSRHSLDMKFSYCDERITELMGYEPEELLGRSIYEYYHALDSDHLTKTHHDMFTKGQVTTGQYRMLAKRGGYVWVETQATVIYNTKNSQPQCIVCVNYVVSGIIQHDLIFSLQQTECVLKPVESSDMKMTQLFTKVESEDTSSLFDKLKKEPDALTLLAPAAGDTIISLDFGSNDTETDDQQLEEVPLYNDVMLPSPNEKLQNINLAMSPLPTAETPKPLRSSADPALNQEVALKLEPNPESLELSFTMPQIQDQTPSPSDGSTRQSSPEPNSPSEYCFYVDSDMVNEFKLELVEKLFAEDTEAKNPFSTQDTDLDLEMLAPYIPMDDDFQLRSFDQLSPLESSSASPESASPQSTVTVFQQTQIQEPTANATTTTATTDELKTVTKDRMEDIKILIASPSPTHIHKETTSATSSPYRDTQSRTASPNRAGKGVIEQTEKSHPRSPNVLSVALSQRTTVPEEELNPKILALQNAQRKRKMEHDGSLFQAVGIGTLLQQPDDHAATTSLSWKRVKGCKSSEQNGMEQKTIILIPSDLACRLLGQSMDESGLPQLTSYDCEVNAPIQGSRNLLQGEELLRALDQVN

Regarding `CSC(SC)=C(C#N)C(=O)c1ccccc1`, the negative-log IC50 (pIC50) in experiment [1] (mean of runs) is 4.58; in experiment [1] (run 1) it was 4.67; in experiment [1] (run 2), 4.51; in experiment [2] (HIF-2a PANC, run 1), under 4.00; in experiment [2] (HIF-2a PANC, run 2), 4.11; in experiment [2] (HIF-2a, mean of runs) it was 5.21. Moreover, the pIC50 was 5.18 in experiment [2] (HIF-2a, run 1) and 5.24 in experiment [2] (HIF-2a, run 2).

Regarding `O=C(CCCc1nc(-c2ccccc2Cl)no1)NC1CCCC1`, the IC50 result in experiment [1] (mean of runs) was “inactive”. Further, the pIC50 in experiment [1] (run 1) was 5.90; in experiment [1] (run 2) it was 5.74; in experiment [2] (HIF-2a PANC, mean of runs) it was 6.01; in experiment [2] (HIF-2a PANC, run 1), 5.97; in experiment [2] (HIF-2a PANC, run 2) it was 6.06; in experiment [2] (HIF-2a, mean of runs), 5.98. Moreover, the negative logarithm of the IC50 (pIC50) was 6.00 in experiment [2] (HIF-2a, run 1) and 5.96 in experiment [2] (HIF-2a, run 2).

With `Cc1ccc(C)c(S(=O)(=O)ON2C(=O)c3ccccc3C2=O)c1`, the pIC50 in experiment [1] (run 1) is under 4.00; in experiment [1] (run 2), under 4.00; in experiment [2] (HIF-2a PANC, run 1), under 4.00; in experiment [2] (HIF-2a PANC, run 2), under 4.00; in experiment [2] (HIF-2a, mean of runs), 5.07; in experiment [2] (HIF-2a, run 1) it was 5.07. The compound further had a pIC50 in experiment [2] (HIF-2a, run 2) of 5.08. Also, in experiment [2] (HIF-2a PANC, mean of runs), the IC50 is > 99 µM (inactive).

With `Cc1ccoc1C(=O)Nc1ccc(CC(=O)O)cc1`, the pIC50 in experiment [1] (run 1) is under 4.00; in experiment [1] (run 2), under 4.00; in experiment [2] (HIF-2a PANC, mean of runs), 6.10; in experiment [2] (HIF-2a PANC, run 1) it was 6.05; in experiment [2] (HIF-2a PANC, run 2), 6.16; in experiment [2] (HIF-2a, mean of runs) it was 6.43. The pIC50 in experiment [2] (HIF-2a, run 1) was 6.44; in experiment [2] (HIF-2a, run 2), 6.42.

As to `COc1cccc(/C=N/Nc2ncccc2[N+](=O)[O-])c1OC`, in experiment [1] (mean of runs), the IC50 result was “inactive”. Besides, the pIC50 in experiment [1] (run 1) is 4.69; in experiment [1] (run 2), 4.70; in experiment [2] (HIF-2a PANC, mean of runs), 4.66; in experiment [2] (HIF-2a PANC, run 1), 4.66; in experiment [2] (HIF-2a PANC, run 2), 4.67; in experiment [2] (HIF-2a, run 1), 5.09. In experiment [2] (HIF-2a, run 2), this compound had a pIC50 of over 4.52.

In the case of `COc1ccc2nc(-c3ccc(N)cc3)[nH]c2c1`, the pIC50 in experiment [1] (mean of runs) is 4.38; in experiment [1] (run 1) it was 4.41; in experiment [1] (run 2), 4.35; in experiment [2] (HIF-2a PANC, mean of runs) it was 5.44; in experiment [2] (HIF-2a PANC, run 1), 5.26; in experiment [2] (HIF-2a PANC, run 2), 5.75. The negative-log IC50 (pIC50) is 5.73 in experiment [2] (HIF-2a, mean of runs); 5.59 in experiment [2] (HIF-2a, run 1); 5.92 in experiment [2] (HIF-2a, run 2).

Take `CCOc1ccc(OCc2cccc(C(=O)N/N=C/c3cccnc3)c2)cc1`: the pIC50 is under 4.00 in experiment [1] (run 1); under 4.00 in experiment [1] (run 2); 4.78 in experiment [2] (HIF-2a PANC, run 1); 4.92 in experiment [2] (HIF-2a PANC, run 2); 5.69 in experiment [2] (HIF-2a, mean of runs); 5.67 in experiment [2] (HIF-2a, run 1). The same compound showed a pIC50 in experiment [2] (HIF-2a, run 2) of 5.71. Moreover, in experiment [2] (HIF-2a PANC, mean of runs), the IC50 entry is “inactive”.

As to `O=C1C=CC(=O)N1c1cccc(-c2ccccc2)c1`, the pIC50 in experiment [1] (mean of runs) is 4.50; in experiment [1] (run 1), 4.58; in experiment [1] (run 2), 4.44; in experiment [2] (HIF-2a PANC, run 1), under 4.00; in experiment [2] (HIF-2a PANC, run 2) it was 4.23; in experiment [2] (HIF-2a, mean of runs) it was 5.09. The pIC50 in experiment [2] (HIF-2a, run 1) is 5.10; in experiment [2] (HIF-2a, run 2), 5.08.

As for `CCOC(=O)C1CCCN(C(=O)COc2ccc(C(C)(C)C)cc2)CC1` (centres undefined), the pIC50 in experiment [1] (run 1) is under 4.00; in experiment [1] (run 2), under 4.00; in experiment [2] (HIF-2a PANC, mean of runs), 4.87; in experiment [2] (HIF-2a PANC, run 1) it was 4.78; in experiment [2] (HIF-2a PANC, run 2) it was 4.98; in experiment [2] (HIF-2a, mean of runs), 5.08. For the same compound, the negative logarithm of the IC50 (pIC50) in experiment [2] (HIF-2a, run 1) is 5.06; in experiment [2] (HIF-2a, run 2), 5.11.

With `Cc1nc2cc(-c3ccccc3)nn2c(C)c1CCC(=O)N1CCN(c2ccccc2)CC1`, the pIC50 was 5.09 in experiment [1] (mean of runs); 5.08 in experiment [1] (run 1); 5.10 in experiment [1] (run 2); 5.80 in experiment [2] (HIF-2a PANC, mean of runs); 5.85 in experiment [2] (HIF-2a PANC, run 1); 5.75 in experiment [2] (HIF-2a PANC, run 2). For the same compound, the pIC50 is 5.98 in experiment [2] (HIF-2a, mean of runs); 6.01 in experiment [2] (HIF-2a, run 1); 5.95 in experiment [2] (HIF-2a, run 2).

Turning to `O=C(c1ccccc1)N1CCSc2sccc2C1=O`, the negative-log IC50 (pIC50) in experiment [1] (mean of runs) was 4.25; in experiment [1] (run 1), 4.24; in experiment [1] (run 2) it was 4.26; in experiment [2] (HIF-2a PANC, mean of runs), 4.72; in experiment [2] (HIF-2a PANC, run 1), 4.55; in experiment [2] (HIF-2a PANC, run 2) it was 5.01. For the same compound, the pIC50 in experiment [2] (HIF-2a, mean of runs) was 5.17; in experiment [2] (HIF-2a, run 1), 5.16; in experiment [2] (HIF-2a, run 2), 5.18.

Turning to `COc1cccc(C(=O)C(C#N)=C(SC)SC)c1`, the pIC50 in experiment [1] (mean of runs) is 4.74; in experiment [1] (run 1), 4.63; in experiment [1] (run 2), 4.88; in experiment [2] (HIF-2a PANC, run 1), 4.32; in experiment [2] (HIF-2a PANC, run 2), 4.32; in experiment [2] (HIF-2a, mean of runs), 5.24. For the same compound, the pIC50 is 5.23 in experiment [2] (HIF-2a, run 1) and 5.25 in experiment [2] (HIF-2a, run 2). Further, the IC50 entry in experiment [2] (HIF-2a PANC, mean of runs) was “inactive”.

Take `CCOC(=O)Cc1csc(NC(=S)NC(=O)c2ccccc2)n1`: the pIC50 in experiment [1] (mean of runs) is 4.66; in experiment [1] (run 1), 4.63; in experiment [1] (run 2), 4.68; in experiment [2] (HIF-2a PANC, run 1) it was 4.39; in experiment [2] (HIF-2a PANC, run 2) it was over 5.00; in experiment [2] (HIF-2a, mean of runs), 5.43. Also, the pIC50 in experiment [2] (HIF-2a, run 1) was 5.43; in experiment [2] (HIF-2a, run 2), 5.44.
